From patent publication US9610365B2, “Anthracenyl-tetralactam macrocycles and their use in detecting a target saccharide” (UNIVERSITY OF BRISTOL, priority 2012, dated 2017)

Legend:
[1] = 1H NMR titration, binding to carbohydrate substrate; conditions: 1H NMR titration in D2O at 298 K; ~0 = too small for analysis
Method: (§1) The binding of receptor compound 3 to carbohydrate substrates, in aqueous solution, was studied initially by ^1H NMR titrations at 298 K. The saccharides used as test substrates are shown in FIG. 7.
(§2) Titrations were performed on a Varian™ 500 MHz spectrometer. Solutions of reducing carbohydrates were prepared in D2O and kept overnight at room temperature before the titration experiments, in order to ensure equilibration of anomers. In a typical titration, aliquots of carbohydrate solution were added to receptor solution (DSS as internal standard) and the ^1H NMR spectra were recorded. Variations in chemical shifts were entered into a specifically written non-linear least squares curve-fitting program implemented within Excel™. Assuming 1:1 stoichiometry, the program calculates Ka and the limiting change in chemical shift Δδ. The assumption is supported by the generally good fits between observed and calculated data.

[2] = Solubility and aggregation in water/D2O (NMR dilution studies); assay type: physicochemical
Method: The compound was dissolved in D2O at concentrations up to ˜4 mM giving clean, if slightly broadened, ^1H NMR spectra. Minor signal movements were observed on dilution to ˜1 mM but no further effect was observed below this concentration, implying that the system is monomeric at 1 mM or less.

[3] = 1H NMR titration, binding to carbohydrate substrate; conditions: 1H NMR titration in D2O at 298 K
Method: as §1, §2

[4] = as above
Method: as §1, §2

[5] = as above; conditions: 1H NMR titration in D2O at 298 K; remark: listed apart in the source
Method: as §1, §2

[6] = as above; conditions: 1H NMR titration in D2O at 298 K; remark: listed apart in the source
Method: as §1, §2

[7] = as above; conditions: 1H NMR titration in D2O at 298 K; remark: listed apart in the source
Method: as §1, §2

[8] = as above; conditions: for Ka: 1H NMR titration in D2O at 298 K
Method: as §1, §2

Fluorescence titration = assay type: binding; conditions: for Ka: fluorescence titration in phosphate buffer solution (pH 7.1, 0.1 M) at 298 K
Method: (§3) Fluorescence titrations were carried out at 298 K on a PerkinElmer™ LS45 spectrometer in PBS (phosphate buffered saline) buffer solution (pH 7.1, 100 mM). The carbohydrate stock solutions were prepared by dissolving the carbohydrates in buffer containing the receptor at the concentration to be used in the titration (thus avoiding dilution of the receptor during the experiment). The solutions were kept overnight at room temperature before the titration experiments, in order to ensure equilibration of anomers. The wavelength to be used for fluorescence excitation was determined by measurement of the UV-visible spectrum of receptor 3 in the presence of carbohydrates. 394 nm was chosen, because at this wavelength the absorption of receptor was almost independent of carbohydrate concentration. In a typical titration, aliquots of carbohydrate-receptor solution were added to receptor solution (2.5 mL) in a quartz cuvette (3 mL, 10 mm pathway). The solution was stirred for 2 minutes and left to stand for another 1 minute before the emission spectrum was recorded. Binding constants were calculated using non-linear curve fitting assuming 1:1 binding stoichiometry, employing both Kaleidagraph™ and a customised Excel™ spreadsheet. Errors were estimated at <5%.

[9] = 1H NMR titration, binding to carbohydrate substrate; conditions: 1H NMR titration in D2O at 298 K; ~0 = too small for analysis; remark: listed apart in the source
Method: as §1, §2

[10] = as above; conditions: 1H NMR titration in D2O at 298 K; remark: listed apart in the source
Method: as §1, §2

[11] = as above; conditions: 1H NMR titration in D2O at 298 K; remark: listed apart in the source
Method: as §1, §2

[12] = as above; conditions: 1H NMR titration in D2O at 298 K; remark: listed apart in the source
Method: as §1, §2

[13] = as above; conditions: 1H NMR titration in D2O at 298 K; remark: listed apart in the source
Method: as §1, §2

[14] = as above; conditions: 1H NMR titration in D2O at 298 K; remark: listed apart in the source
Method: as §1, §2

[15] = as above; conditions: 1H NMR titration in D2O at 298 K; ~0 = too small for analysis; remark: listed apart in the source
Method: as §1, §2

[16] = as above; conditions: 1H NMR titration in D2O at 298 K; ~0 = too small for analysis; remark: listed apart in the source
Method: as §1, §2

[17] = as above; conditions: 1H NMR titration in D2O at 298 K; ~0 = too small for analysis; remark: listed apart in the source
Method: as §1, §2

[18] = Isothermal titration calorimetry (ITC); assay type: binding; conditions: ITC titration in water at 298 K
Method: (§4) Experiments were performed on a VP-ITC™ (Microcal, Inc., Northampton, Mass.) at 298 K. Stock solutions of carbohydrates were made up in pure HPLC grade water and allowed to equilibrate overnight. Receptor solutions were made up in pure water. All the solutions were degassed and thermostated using the ThermoVac™ accessory before titration. The sample cell volume was 1.4226 mL. Each titration experiment included 25-35 successive injections.

[19] = 1H NMR titration, binding to carbohydrate substrate; conditions: 1H NMR titration in D2O at 298 K; ~0 = too small for analysis; remark: listed apart in the source
Method: as §1, §2

[20] = as above; conditions: 1H NMR titration in D2O at 298 K; remark: listed apart in the source
Method: as §1, §2

[21] = Photobleaching under continuous UV irradiation in a fluorescence spectrometer; assay type: physicochemical; conditions: in 5 hours
Method: Under continuous UV irradiation in a fluorescence spectrometer, emission decayed by <10% in 5 hours. In a practical glucose monitoring device this would translate to a long lifetime as the receptor compound would be subjected only to short pulses of light every few seconds.

[22] = Isothermal titration calorimetry (ITC); assay type: binding
Method: as §4

[23] = 1H NMR titration, binding to carbohydrate substrate; conditions: 1H NMR titration in D2O at 298 K; remark: listed apart in the source
Method: as §1, §2

[24] = as above; conditions: 1H NMR titration in D2O at 298 K; remark: listed apart in the source
Method: as §1, §2

[25] = Fluorescence emission properties of the receptor; assay type: physicochemical
Method: as §3, with “The solution was stirred for 2 minutes and left to stand for another 1 minute before the emission spectrum was recorded. Binding constants were calculated using non-linear curve fitting assuming 1:1 binding stoichiometry, employing both Kaleidagraph™ and a customised Excel™ spreadsheet. Errors were estimated at <5%.” left out
It can be seen that on excitation with UV light at 394 nm, 3 emitted in the blue-violet region, peaking at 423 nm, with a quantum yield of 2.4% (20 μm aqueous solution). […] Binding constants obtained by this method were in good agreement with those measured by NMR titrations (see Table 1). Moreover these fluorescence characteristics are promising for practical glucose sensing, especially when compared to biphenyl-based synthetic lectins. […]

[26] = 1H NMR titration, summary for non-target monosaccharides; assay type: binding; conditions: all non-target monosaccharides aside from methyl α-D-glucoside
Method: as §1, §2

[27] = 1H NMR titration, binding to carbohydrate substrate; conditions: 1H NMR titration in D2O at 298 K; ~0 = too small for analysis; remark: listed apart in the source
Method: as §1, §2

[28] = as above; conditions: 1H NMR titration in D2O at 298 K; remark: listed apart in the source
Method: as §1, §2

[29] = 1H NMR titration, 1.1 mM receptor, glucose 0 to 200 mM, 298 K
[30] = 0.125 mM to 2 mM in D2O at 298 K

**Q.** With `O=C(O)CCOCC(COCCC(=O)O)(COCCC(=O)O)NC(=O)c1cc2cc(c1)C(=O)NCc1c3ccccc3c(c3ccccc13)CNC(=O)c1cc(cc(C(=O)NC(COCCC(=O)O)(COCCC(=O)O)COCCC(=O)O)c1)C(=O)NCc1c3ccccc3c(c3ccccc13)CNC2=O` [Compound 3] as the compound, how does the Ka [1] read?
**A.** ~0 M⁻¹

**Q.** What about the “concentration at which system is monomeric” value ([2]; D2O, NMR dilution) of the same compound?
**A.** ≤ 1000 µM

**Q.** What about the “concentration dissolved in D2O” value ([2]; giving clean 1H NMR spectra) of the same compound?
**A.** ~4000 µM

**Q.** What about the Ka [3] of the same compound?
**A.** 6 M⁻¹

**Q.** What about the Ka ([4]; 1H NMR titration in D2O at 298 K, ~0 = too small for analysis) of the same compound?
**A.** ~0 M⁻¹

**Q.** And the “response when added to receptor” value ([4]; mannitol)?
**A.** Neither produced any response

**Q.** And the Ka [5]?
**A.** 24 M⁻¹

**Q.** And the Ka [6]?
**A.** 36 M⁻¹

**Q.** And the Ka [7]?
**A.** 1 M⁻¹

**Q.** And the Ka [8]?
**A.** 56 M⁻¹

**Q.** What about the Ka ([8]; ~0 = too small for analysis) of the same compound?
**A.** ~0 M⁻¹

**Q.** What about the “association constant Ka from movement of proton E” value [8, 29] of the same compound?
**A.** 58 M⁻¹

**Q.** And the “association constant Ka from movement of proton F” value [8, 29]?
**A.** 54 M⁻¹

**Q.** What about the receptor occupancy ([8]; 310 K, across the physiological range of 2-10 mM glucose) of the same compound?
**A.** 6-25%

**Q.** And the “response when added to receptor” value ([8]; lactate)?
**A.** Neither produced any response

**Q.** What about the “affinity measured by NMR titration” value ([8]; physiological temperature (310 K)) of the same compound?
**A.** 33 M⁻¹

**Q.** What about the Ka (Fluorescence titration; binding data at 423 nm) of the same compound?
**A.** 58 M⁻¹

**Q.** And the Ka (Fluorescence titration; with D -lactose)?
**A.** 9 M⁻¹

**Q.** And the Ka (Fluorescence titration; with methyl β-D-glucoside 10)?
**A.** 121 M⁻¹

**Q.** And the “increase of emission intensity on addition of glucose (factor)” value (Fluorescence titration; receptor 18.8 μM, excitation 394 nm)?
**A.** up to 2.5

**Q.** What about the Ka [9] of the same compound?
**A.** ~0 M⁻¹

**Q.** What about the Ka [10] of the same compound?
**A.** 1 M⁻¹

**Q.** And the Ka [11]?
**A.** 96 M⁻¹

**Q.** What about the Ka [12] of the same compound?
**A.** 1 M⁻¹

**Q.** And the Ka [13]?
**A.** 28 M⁻¹

**Q.** What about the Ka [14] of the same compound?
**A.** 87 M⁻¹

**Q.** What about the Ka [15] of the same compound?
**A.** ~0 M⁻¹

**Q.** And the Ka [16]?
**A.** ~0 M⁻¹

**Q.** And the Ka [17]?
**A.** ~0 M⁻¹

**Q.** And the Ka [18]?
**A.** 101 M⁻¹

**Q.** And the Ka [19]?
**A.** ~0 M⁻¹

**Q.** And the Ka [20]?
**A.** 9 M⁻¹

**Q.** And the “emission decay (photobleaching)” value [21]?
**A.** < 10%

**Q.** What about the Ka ([22]; ITC titration in water at 298 K) of the same compound?
**A.** 55 M⁻¹

**Q.** What about the TΔS of binding ([22]; ITC, 298 K, water) of the same compound?
**A.** -1.4 kcal/mol

**Q.** And the ΔH of binding ([22]; ITC, 298 K, water)?
**A.** -3.8 kcal/mol

**Q.** What about the Ka [23] of the same compound?
**A.** 16 M⁻¹

**Q.** And the Ka [24]?
**A.** 35 M⁻¹

**Q.** What about the quantum yield ([25]; 20 μm aqueous solution, excitation 394 nm) of the same compound?
**A.** 2.4%

**Q.** And the emission peak ([25]; excitation with UV light at 394 nm)?
**A.** 423 nm

**Q.** And the Ka [26]?
**A.** ≤ 1 m^−1

**Q.** And the Ka [27]?
**A.** ~0 M⁻¹

**Q.** And the Ka [28]?
**A.** 10 M⁻¹

**Q.** Which results are given for `O=C([O-])CCOCC(COCCC(=O)[O-])(COCCC(=O)[O-])NC(=O)c1cc2cc(c1)C(=O)NCc1c3ccccc3c(c3ccccc13)CNC(=O)c1cc(cc(C(=O)NC(COCCC(=O)[O-])(COCCC(=O)[O-])COCCC(=O)[O-])c1)C(=O)NCc1ccc(cc1)CNC2=O.[Na+].[Na+].[Na+].[Na+].[Na+].[Na+]` [Compound 9]?
**A.** Ka [8]: too small to measure; Ka [20]: too small to measure

**Q.** With `O=C([O-])CCC(CCC(=O)[O-])(CCC(=O)[O-])NC(=O)CCC(CCC(=O)NC(CCC(=O)[O-])(CCC(=O)[O-])CCC(=O)[O-])(CCC(=O)NC(CCC(=O)[O-])(CCC(=O)[O-])CCC(=O)[O-])NC(=O)c1cc2cc(c1)C(=O)NCc1c3ccccc3c(c3ccccc13)CNC(=O)c1cc(cc(C(=O)NC(CCC(=O)NC(CCC(=O)[O-])(CCC(=O)[O-])CCC(=O)[O-])(CCC(=O)NC(CCC(=O)[O-])(CCC(=O)[O-])CCC(=O)[O-])CCC(=O)NC(CCC(=O)[O-])(CCC(=O)[O-])CCC(=O)[O-])c1)C(=O)NCc1c3ccccc3c(c3ccccc13)CNC2=O.[Na+].[Na+].[Na+].[Na+].[Na+].[Na+].[Na+].[Na+].[Na+].[Na+].[Na+].[Na+].[Na+].[Na+].[Na+].[Na+].[Na+].[Na+]` [Compound 13] as the compound, how does the “aggregation during NMR dilution studies” value [2, 30] read?
**A.** no indication of aggregation

**Q.** And the solubility in water [2, 30]?
**A.** good solubility in water

**Q.** What about the Ka [8] of the same compound?
**A.** 89 M⁻¹

**Q.** What about the “increase in fluorescence emission upon binding with D-glucose” value (Fluorescence titration; em 423 nm, ex 395 nm, 18.8 μM, phosphate buffer pH 7.1) of the same compound?
**A.** approximately three-fold

**Q.** What about the Ka (Fluorescence titration; binding data at 423 nm) of the same compound?
**A.** 87 M⁻¹
